Results: ChEMBL document CHEMBL3885861, “Open TG-GATES”

Organism: Rattus norvegicus
Assay: Open TG-GATES - Regimen: Daily Repeat
Type: toxicity, organism-based, Sprague-Dawley
Design: regimen Daily Repeat, gender Male, age 6 weeks
Conditions: in vivo, po, route gavage; for APTT / Bas / Eos / Fbg / Hb / Ht / Lym / MCH / MCHC / MCV / Mono / Neu / PT / Plat / RBC / Ret / WBC: tissue Blood; for KIDNEY_L / KIDNEY_R / KIDNEY_TOTAL: tissue Kidney; for LIVER: tissue Liver; for A/G / ALP / ALT / AST / BUN / CRE / Ca / Cl / DBIL / GLC / IP / K / LDH / Na / PL / RALB / TBIL / TC / TG / TP / gamma-GTP: tissue Plasma
[1] = 10 mg/kg, 72 h, dose level Middle, time 3 day
[2] = 10 mg/kg, […], dose level Middle, time 7 day
[3] = 10 mg/kg, […], dose level Middle, time 14 day
[4] = 10 mg/kg, […], dose level Middle, time 28 day
[5] = 30 mg/kg, 72 h, dose level High, time 3 day
[6] = 30 mg/kg, […], dose level High, time 7 day
[7] = 30 mg/kg, […], dose level High, time 14 day
[8] = 30 mg/kg, […], dose level High, time 28 day

## Cn1cnc([N+](=O)[O-])c1Sc1ncnc2nc[nH]c12 [AZATHIOPRINE]
[1]
  TERMINAL_BW: 204.1 g
  APTT: 20.4 s
  Bas: 0%
  Eos: 0.8%
  Fbg: 324.8 mg/dL
  Hb: 13.4 g/dL
  Ht: 39.3%
  Lym: 83.6%
  MCH: 21.4 pg
  MCHC: 33.9%
  MCV: 62.9 fL
  Mono: 2%
  Neu: 12.4%
  PT: 15.7 s
  Plat: 125.8 x10_4/uL
  RBC: 625.6 x10_4/ul
  Ret: 5.2%
  WBC: 72.4 x10_2/uL
  KIDNEY_L: 0.9 g
  KIDNEY_R: 0.9 g
  KIDNEY_TOTAL: 1.9 g
  LIVER: 9.8 g
  A/G: 1.2
  ALP: 1704 IU/L
  ALT: 41.4 IU/L
  AST: 73 IU/L
  BUN: 16.2 mg/dL
  CRE: 0.1 mg/dL
  Ca: 11.2 mg/dL
  Cl: 106.2 meq/L
  DBIL: 0 mg/dL
  GLC: 184.8 mg/dL
  IP: 7.2 mg/dL
  K: 4.2 meq/L
  LDH: 196.8 IU/L
  Na: 143 meq/L
  PL: 148.2 mg/dL
  RALB: 3.1 g/dL
  TBIL: 0.014 mg/dL
  TC: 77.4 mg/dL
  TG: 85.2 mg/dL
  TP: 5.7 g/dL
  gamma-GTP: 1 IU/L
[2]
  TERMINAL_BW: 234.4 g
  APTT: 22.4 s
  Bas: 0%
  Eos: 1%
  Fbg: 325.8 mg/dL
  Hb: 13.7 g/dL
  Ht: 39%
  Lym: 83%
  MCH: 21.5 pg
  MCHC: 35.1%
  MCV: 61.5 fL
  Mono: 2.4%
  Neu: 12.4%
  PT: 15.4 s
  Plat: 143.7 x10_4/uL
  RBC: 635 x10_4/ul
  Ret: 6.2%
  WBC: 81.7 x10_2/uL
  KIDNEY_L: 1 g
  KIDNEY_R: 1 g
  KIDNEY_TOTAL: 2 g
  LIVER: 11.1 g
  A/G: 1.1
  ALP: 1444.2 IU/L
  ALT: 37.8 IU/L
  AST: 69.8 IU/L
  BUN: 18.2 mg/dL
  CRE: 0.1 mg/dL
  Ca: 10.7 mg/dL
  Cl: 105.8 meq/L
  DBIL: 0 mg/dL
  GLC: 193.2 mg/dL
  IP: 6.8 mg/dL
  K: 4.2 meq/L
  LDH: 265.2 IU/L
  Na: 142.8 meq/L
  PL: 166.4 mg/dL
  RALB: 3.1 g/dL
  TBIL: 0 mg/dL
  TC: 89.4 mg/dL
  TG: 104.6 mg/dL
  TP: 6 g/dL
  gamma-GTP: 1 IU/L
[3]
  TERMINAL_BW: 294.1 g
  APTT: 21.7 s
  Bas: 0%
  Eos: 0.6%
  Fbg: 333 mg/dL
  Hb: 14 g/dL
  Ht: 40.1%
  Lym: 81.4%
  MCH: 21.1 pg
  MCHC: 35%
  MCV: 60.3 fL
  Mono: 1.6%
  Neu: 14.8%
  PT: 15.6 s
  Plat: 116.8 x10_4/uL
  RBC: 664.6 x10_4/ul
  Ret: 4.2%
  WBC: 93.4 x10_2/uL
  KIDNEY_L: 1.1 g
  KIDNEY_R: 1.2 g
  KIDNEY_TOTAL: 2.3 g
  LIVER: 13.4 g
  A/G: 1.1
  ALP: 1327.6 IU/L
  ALT: 33.4 IU/L
  AST: 62.8 IU/L
  BUN: 17.8 mg/dL
  CRE: 0.2 mg/dL
  Ca: 11.3 mg/dL
  Cl: 105.2 meq/L
  DBIL: 0 mg/dL
  GLC: 200.2 mg/dL
  IP: 6.8 mg/dL
  K: 4 meq/L
  LDH: 161 IU/L
  Na: 143 meq/L
  PL: 174.4 mg/dL
  RALB: 3.2 g/dL
  TBIL: 0.006 mg/dL
  TC: 93.8 mg/dL
  TG: 93.4 mg/dL
  TP: 6.2 g/dL
  gamma-GTP: 1.8 IU/L
[4]
  TERMINAL_BW: 329.3 g
  APTT: 22.4 s
  Bas: 0%
  Eos: 1.4%
  Fbg: 347.6 mg/dL
  Hb: 11.8 g/dL
  Ht: 34.5%
  Lym: 74%
  MCH: 19.3 pg
  MCHC: 33.9%
  MCV: 56.9 fL
  Mono: 3.2%
  Neu: 19.4%
  PT: 16.5 s
  Plat: 95.9 x10_4/uL
  RBC: 615.2 x10_4/ul
  Ret: 2.4%
  WBC: 54.1 x10_2/uL
  KIDNEY_L: 1.3 g
  KIDNEY_R: 1.3 g
  KIDNEY_TOTAL: 2.6 g
  LIVER: 13.3 g
  A/G: 1.1
  ALP: 971.6 IU/L
  ALT: 82 IU/L
  AST: 182.8 IU/L
  BUN: 20.8 mg/dL
  CRE: 0.2 mg/dL
  Ca: 10.7 mg/dL
  Cl: 107 meq/L
  DBIL: 0.034 mg/dL
  GLC: 169.4 mg/dL
  IP: 6.3 mg/dL
  K: 3.9 meq/L
  LDH: 602 IU/L
  Na: 141.4 meq/L
  PL: 169.6 mg/dL
  RALB: 3.3 g/dL
  TBIL: 0.066 mg/dL
  TC: 102 mg/dL
  TG: 63.4 mg/dL
  TP: 6.4 g/dL
  gamma-GTP: 1.2 IU/L
[5]
  TERMINAL_BW: 201.9 g
  APTT: 19.5 s
  Bas: 0%
  Eos: 0.8%
  Fbg: 327.6 mg/dL
  Hb: 12.7 g/dL
  Ht: 37.9%
  Lym: 86%
  MCH: 21.7 pg
  MCHC: 33.5%
  MCV: 64.7 fL
  Mono: 2.2%
  Neu: 9.4%
  PT: 15.3 s
  Plat: 140.5 x10_4/uL
  RBC: 585.2 x10_4/ul
  Ret: 2.3%
  WBC: 55.5 x10_2/uL
  KIDNEY_L: 0.9 g
  KIDNEY_R: 0.9 g
  KIDNEY_TOTAL: 1.8 g
  LIVER: 9.7 g
  A/G: 1.2
  ALP: 1508.2 IU/L
  ALT: 33 IU/L
  AST: 68.2 IU/L
  BUN: 17.2 mg/dL
  CRE: 0.1 mg/dL
  Ca: 11.3 mg/dL
  Cl: 106 meq/L
  DBIL: 0 mg/dL
  GLC: 185 mg/dL
  IP: 6.8 mg/dL
  K: 4.4 meq/L
  LDH: 199.8 IU/L
  Na: 143 meq/L
  PL: 160.4 mg/dL
  RALB: 3.3 g/dL
  TBIL: 0.008 mg/dL
  TC: 91.8 mg/dL
  TG: 77 mg/dL
  TP: 6 g/dL
  gamma-GTP: 1.4 IU/L
[6]
  TERMINAL_BW: 220 g
  APTT: 21.5 s
  Bas: 0%
  Eos: 1%
  Fbg: 314.4 mg/dL
  Hb: 12.4 g/dL
  Ht: 36%
  Lym: 84.6%
  MCH: 22.1 pg
  MCHC: 34.5%
  MCV: 64.2 fL
  Mono: 1.8%
  Neu: 11.6%
  PT: 15.1 s
  Plat: 192.2 x10_4/uL
  RBC: 561.4 x10_4/ul
  Ret: 4.1%
  WBC: 73.3 x10_2/uL
  KIDNEY_L: 1 g
  KIDNEY_R: 1 g
  KIDNEY_TOTAL: 2 g
  LIVER: 10.9 g
  A/G: 1.1
  ALP: 1412.8 IU/L
  ALT: 29.6 IU/L
  AST: 75.2 IU/L
  BUN: 17.8 mg/dL
  CRE: 0.1 mg/dL
  Ca: 11.3 mg/dL
  Cl: 105.2 meq/L
  DBIL: 0 mg/dL
  GLC: 191.2 mg/dL
  IP: 6.6 mg/dL
  K: 4.1 meq/L
  LDH: 255.6 IU/L
  Na: 142.6 meq/L
  PL: 179.8 mg/dL
  RALB: 3.3 g/dL
  TBIL: 0.01 mg/dL
  TC: 98.2 mg/dL
  TG: 56.4 mg/dL
  TP: 6.2 g/dL
  gamma-GTP: 1 IU/L
[7]
  TERMINAL_BW: 226 g
  APTT: 28.3 s
  Bas: 0%
  Eos: 0.2%
  Fbg: 458.2 mg/dL
  Hb: 12.5 g/dL
  Ht: 35%
  Lym: 85.8%
  MCH: 21.8 pg
  MCHC: 35.6%
  MCV: 61.2 fL
  Mono: 2%
  Neu: 10.6%
  PT: 18.9 s
  Plat: 86.4 x10_4/uL
  RBC: 571.6 x10_4/ul
  Ret: 3%
  WBC: 49.6 x10_2/uL
  KIDNEY_L: 1.1 g
  KIDNEY_R: 1.1 g
  KIDNEY_TOTAL: 2.1 g
  LIVER: 11.5 g
  A/G: 0.9
  ALP: 976.6 IU/L
  ALT: 135 IU/L
  AST: 523.6 IU/L
  BUN: 31.6 mg/dL
  CRE: 0.2 mg/dL
  Ca: 11.2 mg/dL
  Cl: 106.8 meq/L
  DBIL: 0.036 mg/dL
  GLC: 168.8 mg/dL
  IP: 8.4 mg/dL
  K: 4.8 meq/L
  LDH: 1529.2 IU/L
  Na: 142.6 meq/L
  PL: 149.6 mg/dL
  RALB: 3 g/dL
  TBIL: 0.074 mg/dL
  TC: 94.8 mg/dL
  TG: 35.8 mg/dL
  TP: 6.5 g/dL
  gamma-GTP: 1.4 IU/L
[8]
  TERMINAL_BW: 300.4 g
  APTT: 24.3 s
  Bas: 0%
  Eos: 1%
  Fbg: 339.5 mg/dL
  Hb: 12.4 g/dL
  Ht: 35.6%
  Lym: 87%
  MCH: 21.5 pg
  MCHC: 34.9%
  MCV: 61.6 fL
  Mono: 1%
  Neu: 10.5%
  PT: 16.4 s
  Plat: 135.4 x10_4/uL
  RBC: 577.5 x10_4/ul
  Ret: 5.3%
  WBC: 35.2 x10_2/uL
  KIDNEY_L: 1.1 g
  KIDNEY_R: 1.2 g
  KIDNEY_TOTAL: 2.3 g
  LIVER: 12.9 g
  A/G: 1.1
  ALP: 982 IU/L
  ALT: 32 IU/L
  AST: 71.5 IU/L
  BUN: 19 mg/dL
  CRE: 0.2 mg/dL
  Ca: 10.8 mg/dL
  Cl: 106.5 meq/L
  DBIL: 0.01 mg/dL
  GLC: 192.5 mg/dL
  IP: 5.7 mg/dL
  K: 3.9 meq/L
  LDH: 214 IU/L
  Na: 141.5 meq/L
  PL: 138.5 mg/dL
  RALB: 3.4 g/dL
  TBIL: 0.05 mg/dL
  TC: 73 mg/dL
  TG: 42.5 mg/dL
  TP: 6.5 g/dL
  gamma-GTP: 2 IU/L
